Reference: the supplement of paper PMC10307832

Assays:
Assay in all cases: relative viability (nuclei count vs DMSO), 5 days (fraction); higher = more cells survive
[1] = tested on: NCI-H1915
Outline: (§1)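 Relative viability was taken as the ratio of nuclei in treated wells to nuclei in vehicle wells. Lung cancer cell lines in 1536-well plates received compounds by pin tool one day after seeding, either one drug alone or a fixed anchor-drug dose plus five library-drug doses (not always all listed) in √10 steps. Nuclei were counted on 4× images after 5 days of treatment, and values are medians of duplicate plates.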

[2] = tested on: NCI-H23
Outline: as §1

[3] = tested on: SK-LU-1
Outline: as §1

[4] = tested on: EKVX
Outline: as §1

[5] = tested on: H3255
Outline: as §1

[6] = tested on: LU99A
Outline: as §1

[7] = tested on: EMC-BAC-2
Outline: as §1

[8] = tested on: NCI-H441
Outline: as §1

[9] = tested on: NCI-H1793
Outline: as §1

[10] = tested on: ChaGo-K-1
Outline: as §1

[11] = tested on: LCLC-97TM1
Outline: as §1

O=c1[nH]c2ccccc2n1C1CCN(CCCC(c2ccc(F)cc2)c2ccc(F)cc2)CC1 [Pimozide] + CC1(C)CCC(c2ccc(Cl)cc2)=C(CN2CCN(c3ccc(C(=O)NS(=O)(=O)c4ccc(N[C@H](CCN5CCOCC5)CSc5ccccc5)c(S(=O)(=O)C(F)(F)F)c4)cc3)CC2)C1 [Navitoclax] (partner 0.5 µM) showed a relative viability ([1]; first compound 0.08 µM) of 0.784, a relative viability ([1]; first compound 0.253 µM) of 0.705 and a relative viability ([1]; first compound 0.8 µM) of 0.777. It also gave a relative viability ([1]; first compound 2.53 µM) of 0.777, a relative viability ([1]; first compound 8 µM) of 0.786 and a relative viability ([2]; first compound 0.08 µM) of 0.882. It also gave a relative viability ([2]; first compound 0.253 µM) of 0.807, a relative viability ([2]; first compound 0.8 µM) of 0.732 and a relative viability ([2]; first compound 2.53 µM) of 0.844. For the same compound, the relative viability ([2]; first compound 8 µM) was 0.801, the relative viability ([3]; first compound 0.08 µM) was 1.09 and the relative viability ([3]; first compound 0.253 µM) was 0.815. For the same compound, the relative viability ([3]; first compound 0.8 µM) was 0.804, the relative viability ([3]; first compound 2.53 µM) was 0.76 and the relative viability ([3]; first compound 8 µM) was 0.809. For the same compound, the relative viability ([4]; first compound 0.253 µM) was 0.936, the relative viability ([4]; first compound 0.8 µM) was 0.881 and the relative viability ([4]; first compound 2.53 µM) was 0.89. It also gave a relative viability ([4]; first compound 8 µM) of 0.946, a relative viability ([5]; first compound 0.253 µM) of 0.555 and a relative viability ([5]; first compound 0.8 µM) of 0.549. The relative viability ([5]; first compound 2.53 µM) was 0.551, the relative viability ([5]; first compound 8 µM) was 0.506 and the relative viability ([6]; first compound 0.08 µM) was 0.794. It also gave a relative viability ([6]; first compound 0.253 µM) of 0.772, a relative viability ([6]; first compound 0.8 µM) of 0.716 and a relative viability ([6]; first compound 2.53 µM) of 0.875. For the same compound, the relative viability ([6]; first compound 8 µM) was 0.806, the relative viability ([7]; first compound 0.08 µM) was 1.09 and the relative viability ([7]; first compound 0.253 µM) was 1.11. It also gave a relative viability ([7]; first compound 0.8 µM) of 1.05, a relative viability ([7]; first compound 2.53 µM) of 1.06 and a relative viability ([7]; first compound 8 µM) of 1.07. The relative viability ([8]; first compound 0.08 µM) was 0.685, the relative viability ([8]; first compound 0.253 µM) was 0.697 and the relative viability ([8]; first compound 0.8 µM) was 0.75. It also gave a relative viability ([8]; first compound 2.53 µM) of 0.487, a relative viability ([8]; first compound 8 µM) of 0.346 and a relative viability ([9]; first compound 0.08 µM) of 0.532. It also gave a relative viability ([9]; first compound 0.253 µM) of 0.485, a relative viability ([9]; first compound 0.8 µM) of 0.389 and a relative viability ([9]; first compound 2.53 µM) of 0.48. For the same compound, the relative viability ([9]; first compound 8 µM) was 0.494, the relative viability ([10]; first compound 0.08 µM) was 0.861 and the relative viability ([10]; first compound 0.253 µM) was 0.935. It also gave a relative viability ([10]; first compound 0.8 µM) of 0.974, a relative viability ([10]; first compound 2.53 µM) of 1.01 and a relative viability ([10]; first compound 8 µM) of 0.941. The relative viability ([11]; first compound 0.08 µM) was 0.527, the relative viability ([11]; first compound 0.253 µM) was 0.489 and the relative viability ([11]; first compound 0.8 µM) was 0.215. It also gave a relative viability ([11]; first compound 2.53 µM) of 0.415.
